From patent US20090138208A1, “IMMUNOGLOBULIN G BINDING POCKET” (GE HEALTHCARE BIO-SCIENCES AB, priority 2002, published 2009)

Legend:
[1] = system: Fab fragment of lambda-type; assay: STD NMR control with Fab fragment of lambda-type; assay type: binding; conditions: tested as in Example 2 with lambda-type Fab
Description: Apart from the different Fab fragment, the testing was performed as described above in Example 2.

[2] = molecular target: human Fab of κ-type (Homo sapiens, UniProt P01834+P01857); assay: STD NMR screening (1D saturation transfer difference) for binding to antibody; set-up: key: 0 no; 1 weak; 2 strong signal; conditions: 0.5 mM ligand
Description: All NMR experiments were performed at 298 K on a Bruker Avance 500 MHz spectrometer. The 1D saturation transfer difference method (STD NMR) was used as screening assay (Mayer M. and Meyer B. 1999. Characterization of Ligand Binding by Saturation Transfer Difference NMR Spectroscopy. Angew. Chem., Int. Ed. 38: 1784-1788) using several antibody concentrations in order to differentiate between compounds with different binding strength (Peng J. W., Lepre C. A., Fejzo J., Abdul-Manan N. and Moore J. M. 2001. Nuclear Magnetic Resonance-Based Approaches for Lead Generation in Drug Discovery. Methods in Enzymology. 338: 202-230). The antibody used was a human Fab of κ-type. In all cases ligands were tested one-by-one. On-resonance irradiation was set at 0 ppm and off-resonance irradiation was set at −40 ppm. Irradiation time in each scan was 2 s and 16 K data points were collected with 1024 scans in total. Compounds for testing were dissolved in DMSOd6 to a concentration of 50 mM and 5 μL of the concentrated ligand solution was added to 495 μL buffer solution. The samples thus consisted of 0.5 mM ligand, 20 mM phosphate buffer, 100 mM NaCl and […] in D2O at pD 7.5, uncorrected reading on pH-meter.
Compounds were initially tested for binding with 0.5 μM antibody. Interesting ligands were further tested with protein concentrations of 100 or 20 nM. A one-dimensional ^1H-spectrum was acquired first and subsequently a saturation transfer difference (STD) spectrum was acquired. Each analysis took 60 minutes on the spectrometer. […] The analysis was setup for automation so that several samples could be analysed over night (usually 10-15 samples/night).
As many as 46 of the virtual screening hits were tested with NMR according to the procedure described above. The results from NMR screening together with additional compound data are compiled in Table 1 below. In total 24 compounds gave a positive result in the first round with the highest antibody concentration (500 nM). These 24 compounds were subjected to a second round with an antibody concentration of 100 nM. The 4 compounds showing the strongest signal in the second round were tested for binding in a third round with 20 nM antibody. Three of the compounds in the third round gave a positive result and where thus designated as the strongest binders to the antibody out of the 46 tested compounds.

[3] = system: F(ab′)2 fragment of a different specificity (kappa); assay: STD NMR control with F(ab′)2 fragment of a different specificity; assay type: binding; conditions: 1 μM protein; different variable part from Example 2
Description: The present example was performed with a F(ab′)2 fragment of a different specificity, i.e. a different variable part, from the one used in Example 2 above in order to verify that binding of one the selected compounds still occurred.
The testing was performed as described above in Example 2, but this time using 1 μM protein and using compound AB—0000860 as defined above in table 1. The results were positive, which implies that there is an interaction between AB—0000860 and at least two kappa Fab fragments of different specificities.

Chain of human Fab of κ-type (P01857 with tags, fused parts or gaps, other chains not shown): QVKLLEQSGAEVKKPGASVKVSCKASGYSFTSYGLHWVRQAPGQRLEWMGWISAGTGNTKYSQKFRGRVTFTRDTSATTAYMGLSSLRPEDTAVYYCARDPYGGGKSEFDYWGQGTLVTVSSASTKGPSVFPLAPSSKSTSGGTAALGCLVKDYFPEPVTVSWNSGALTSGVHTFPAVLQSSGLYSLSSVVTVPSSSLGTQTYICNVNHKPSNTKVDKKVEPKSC

In the case of O=C1CN(c2ccccc2)C(=O)N1c1ccccc1 [AB_0000860, 1,3-diphenylimidazolidine-2,4-dione], the “binding to lambda-type Fab (STD NMR result)” value [1] is reported as “negative”, the “NMR signal conc 3” value ([2]; 20 nM antibody) is reported as 1 and the “NMR signal conc 2” value ([2]; 100 nM antibody) is reported as 2. The “NMR signal conc 1” value ([2]; 500 nM antibody, 298 K) was 2 and the “binding to F(ab′)2 fragment (STD NMR result)” value [3] was “positive”.
